Like-named read-outs stand apart in the source and are kept apart here.
Experiments:
K562 cells [1] = assay: Expression pattern of RGS proteins in hemin-stimulated K562 cell maturation, Western blotting; type: cell-based; conditions: 30 μM hemin, days 3, 6, 9 and 12
Method: K562 cells (5×10^6 cells/10 mL) were cultured by adding 4.5 g glucose/30 μM hemin to a DMEM solvent, and 2.5 mL of the same solvent was added at 3-day intervals. Cells were collected on days 3, 6, 9, and 12, and were dissolved in 100 μL of SDS Loading Buffer (6 M Urea). 10 μL were run on a 12% SDS-GEL, and after transferring to a blotting membrane, this was reacted with respective antibodies to the R4 RGS family (herein RGS1/RGS3/RGS16/RGS18) and another RGS family (herein, RGS14).

K562 cells [2] = conditions: 0.125 mM, with 30 μM hemin
Text: Cells were collected on days 0, 3, 6, 12, and 15, and the ability to assist induction of erythrocyte differentiation was examined using cell surface markers, glycophorin A (CD235a) and transferrin receptor (CD71), as indicators.
CD235(+/−)/CD71(++) represent K562 proerythroblast-like cells, CD235(+)/CD71(++) represent K562 basophilic erythroblast-like cells, CD235(+)/CD71(+) represent K562 polychromatic erythroblast-like cells, and CD235(+)/CD71(+/−) represent K562 orthochromatic erythroblast-like cells or reticulocytes. K562 cells are CD71-non-positive cells positioned upstream of pro-erythroblasts.
Using the same system that uses K562 cells for evaluating induction of differentiation, CD235/CD71 which are the existing indicators for induction of erythrocyte differentiation, and the new indicators lactoferrin (Lf)/C5a receptor (CD88) were compared and examined. Cells were collected on days 0, 3, 6, 12, and 15, and the ability to induce differentiation into erythrocytes was examined using Lf/CD88 as the indicators.
Using the same system that uses K562 cells for evaluating induction of differentiation, CD235/CD71 which are the existing indicators for induction of erythrocyte differentiation, and the new indicators FAS ligand (CD178)/C5a receptor (CD88) were compared and examined. Cells were collected on days 0, 3, 6, 12, and 15, and the ability to induce differentiation into erythrocytes was examined using CD178/CD88 as the indicator.

| Substance | expression of RGS14 (K562 cells [1]) | expression of the R4 RGS family (RGS1/RGS3/RGS16/RGS18) (K562 cells [1]) | induction of differentiation after erythroblast formation (K562 cells [2]; markers CD178/CD88) | number of days taken for maturation to form erythroblasts (K562 cells [2]; markers CD178/CD88) | induction of differentiation after erythroblast formation (K562 cells [2]; markers CD235/CD71) | number of days taken for maturation until erythroblast formation (K562 cells [2]; markers CD235/CD71) | induction of differentiation after erythroblast formation (K562 cells [2]; markers Lf/CD88) | number of days taken for maturation until erythroblast formation (K562 cells [2]; markers Lf/CD88) |
| --- | --- | --- | --- | --- | --- | --- | --- | --- |
| hemin | did not change | increased | – | – | – | – | – | – |
| manganese chloride | – | – | inhibited | reduced | inhibited | reduced | inhibited | reduced |
